Results from PubChem BioAssay (NCI).
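Following 48 hours of exposure in 96-well plates, responses at five concentrations were used to interpolate endpoints linearly. GI50 is the concentration that inhibits growth by half. TGI is the concentration that stops growth completely.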

How the values were obtained:
Test in all cases: DTP human tumour cell line panel, 48 h
[1] = test system: HOP-92 NSCLC
[2] = test system: HT29 colon
[3] = test system: M14 melanoma
[4] = test system: NCI-H460 lung
[5] = test system: SF-539 CNS
[6] = test system: SK-MEL-5 melanoma
[7] = test system: SK-OV-3 ovarian
[8] = test system: SW-620 colon
[9] = test system: TK-10 renal
[10] = test system: UACC-257 melanoma

SMILES: CN(C)CCC(=O)N1C/C(=C/c2ccccc2)C(=O)/C(=C\c2ccccc2)C1
- TGI [1]: 16.6 µM
- TGI [2]: 2.69 µM
- TGI [3]: 6.53 µM
- TGI [4]: 6.47 µM
- TGI [5]: 11.9 µM
- TGI [6]: 3.9 µM
- TGI [7]: 15.2 µM
- TGI [8]: 1.22 µM
- TGI [9]: 17.9 µM
- TGI [10]: 4.61 µM

SMILES: N#C/C(=C1C=C/C(=N/O)C(Br)=C/1)c1ccccc1
- GI50 [1]: 0.385 µM
- TGI [1]: 3.77 µM
- GI50 [2]: 3.3 µM
- TGI [2]: 10.2 µM
- GI50 [3]: 3.79 µM
- TGI [3]: 20 µM
- GI50 [4]: 2.89 µM
- TGI [4]: 8.8 µM
- GI50 [5]: 1.09 µM
- TGI [5]: 2.75 µM
- GI50 [6]: 2.75 µM
- TGI [6]: 10.4 µM
- GI50 [7]: 4.43 µM
- TGI [7]: 71.6 µM
- GI50 [8]: 0.637 µM
- TGI [8]: 10.8 µM
- GI50 [9]: 5.02 µM
- TGI [9]: 16.5 µM
- GI50 [10]: 6.61 µM
- TGI [10]: 55.9 µM

SMILES: CC1(Cl)C(=O)NC(=O)N(C2CC(N=[N+]=[N-])C(CO)O2)C1N=[N+]=[N-] (stereo unspecified)
- TGI [1]: > 100 µM
- TGI [2]: > 100 µM
- TGI [3]: > 100 µM
- TGI [4]: > 100 µM
- TGI [5]: > 100 µM
- TGI [6]: > 100 µM
- TGI [7]: > 100 µM
- TGI [8]: > 100 µM
- TGI [9]: > 100 µM
- TGI [10]: > 100 µM

SMILES: COC(=O)CC(=O)C[P+](c1ccccc1)(c1ccccc1)c1ccccc1
- TGI [1]: > 218 µM
- TGI [2]: > 218 µM
- TGI [4]: > 218 µM
- TGI [5]: > 218 µM
- TGI [6]: > 218 µM
- TGI [7]: > 218 µM
- TGI [8]: > 218 µM
- TGI [9]: > 218 µM
- TGI [10]: > 218 µM

SMILES: COc1cc(OC)cc(-c2ccc(-c3ccc(C(=N)N)o3)o2)c1
- GI50 [2]: 2.77 µM
- TGI [2]: 9.04 µM
- GI50 [3]: 2.07 µM
- TGI [3]: 4.36 µM
- GI50 [4]: 2.32 µM
- TGI [4]: 5.17 µM
- GI50 [5]: 1.83 µM
- TGI [5]: 3.44 µM
- GI50 [6]: 1.95 µM
- TGI [6]: 3.39 µM
- GI50 [7]: 14.9 µM
- TGI [7]: 28.5 µM
- GI50 [8]: 1.88 µM
- TGI [8]: 4.06 µM
- GI50 [9]: 13.4 µM
- TGI [9]: 26.5 µM
- GI50 [10]: 2.41 µM
- TGI [10]: 5.41 µM

SMILES: CC12CC[C@@H](C(C)(C)O)C1[C@@H](O)CC1(C)C2CCC2[C@@]3(C)CC[C@H](O)C(C)(C)C3C(O)C[C@]21C (stereo partly specified)
- TGI [1]: 37.5 µM
- TGI [2]: 31.1 µM
- TGI [3]: > 100 µM
- TGI [4]: 37.5 µM
- TGI [5]: 35.3 µM
- TGI [6]: 21.3 µM
- TGI [8]: 39 µM
- TGI [9]: 35.6 µM

SMILES: COc1cnc2cc(C(=O)O)c3c([N+](=O)[O-])cccc3c2c1
- TGI [1]: > 100 µM
- TGI [2]: > 100 µM
- TGI [3]: > 100 µM
- TGI [4]: > 100 µM
- TGI [6]: > 100 µM
- TGI [7]: > 100 µM
- TGI [8]: > 100 µM
- TGI [9]: > 100 µM
- TGI [10]: > 100 µM

SMILES: O=[N+]([O-])/C=C\c1ccc(Cl)c(Cl)c1
- GI50 [1]: 1.87 µM
- TGI [1]: 5.01 µM
- GI50 [3]: 1.63 µM
- TGI [3]: 3.29 µM
- GI50 [4]: 3.64 µM
- TGI [4]: 25.1 µM
- GI50 [5]: 3.83 µM
- TGI [5]: 18.2 µM
- GI50 [6]: 3.57 µM
- TGI [6]: 14 µM
- GI50 [7]: 14.4 µM
- TGI [7]: 27.4 µM
- GI50 [8]: 1.3 µM
- TGI [8]: 3.3 µM
- GI50 [9]: 3.48 µM
- TGI [9]: 12 µM
- GI50 [10]: 1.4 µM
- TGI [10]: 2.89 µM

SMILES: Cc1ccc(S(=O)(=O)C(CC(=O)N2CCCC2)C(=O)c2ccccc2)cc1 (stereo unspecified)
- TGI [1]: > 100 µM
- TGI [2]: > 100 µM
- TGI [3]: > 100 µM
- TGI [4]: > 100 µM
- TGI [5]: > 100 µM
- TGI [6]: > 100 µM
- TGI [8]: > 100 µM
- TGI [9]: > 100 µM
- TGI [10]: > 100 µM
